US11583545B2, “Parasiticidal compositions comprising eprinomectin and praziquantel, methods and uses thereof” (BOEHRINGER INGELHEIM ANIMAL HEALTH USA INC., priority 2018, dated 2023)

Tests used:
in vivo = details: cat
[1] = Stability study of topical solution in the market container (HPLC, 30° C./65% RH); assay type: physicochemical; details: in formulation of Example 1, two runs
[2] = in vivo
[3] = Pharmacokinetic assessment in cats after administration of the formulation of Example 1; details: blood of cats; after administration of formulation of Example 1

| half-life (in vivo) [h] | time at which Cmax is reached [2] [h] | Compound | average % label claim ([1]; time point 0 month) [% LC] | average % label claim ([1]; time point 3 months) [% LC] | average % label claim ([1]; time point 6 months) [% LC] | average % label claim ([1]; time point 9 months) [% LC] | average % label claim ([1]; time point 12 months) [% LC] | average % label claim ([1]; time point 18 months) [% LC] | terminal half-life [3] [h] |
| --- | --- | --- | --- | --- | --- | --- | --- | --- | --- |
| 73.9 | 6 | O=C(C1CCCCC1)N1CC(=O)N2CCc3ccccc3C2C1 (stereo not drawn) [Praziquantel, praziquantel] | 99.52 | 97.38 | 97.74 | 98.44 | 98.36 | 97.04 |  |
|  |  | Eprinomectin | 99.33 | 97.92 | 97.61 | 98.40 | 98.50 | 96.48 | 114 |
